Reference: EP0555116B1, “Compositions based on antiseptics and their applications” (HUTCHINSON, priority 1992, dated 1993)

Legend:
[1] = test system: Candida albicans ATCC 1031; test: Growth inhibition test (DGHM, Essai 2, Tables A-C), 72 h at 37°C; non/A/B/C = without or with inactivating substances A, B, C; assay type: cell-based
Procedure: Un autre essai a été réalisé à partir des solutions suivantes : • 100 ml d'une solution à 0,1 % de digluconate de chlorhexidine (pH 6) et • 100 ml d'une solution à 0,1 % de Bardac 22®. […]
(§1) Les tests ont été réalisés conformément au protocole décrit dans le Chapitre I/2.1 et 2.2 de Richtlinien für die Prüfung und Bewertung chemischer Desinfektionsverfahren der DGHM, Stand 1.1., 1981).
Les Tableaux A, B et C illustrent respectivement l'activité bactéricide et fongicide d'une solution aqueuse à 0,1 % de digluconate de chlorhexidine, d'une solution aqueuse à 0,1 % de Bardac 22® et d'un mélange à part égale des deux composés. Les protocoles dont ces Tableaux illustrent les résultats comprennent une incubation de 72 heures à 37°C et l'utilisation, comme témoins, des substances inactivantes suivantes : A : Tween® 80 3 % + lécithine 0,3 % + cystéine 0,1 %; B : Tween® 80 3 % + saponine 3 % + cystéine 0,1 % + histidine 0,1 %; C : Tween® 80 3 % + lécithine 0,3 % + histidine 0,1 % + thiosulfate de sodium 0,5 %.
Dans ces Tableaux, le signe "+" indique une croissance et le signe "-" l'absence de croissance.

S. aureus ATCC 6538 = test: Disinfection time test (Essai 2, Tables D-F), reaction at 22°, subcultures 72 h at 37°C; assay type: cell-based, Staphylococcus aureus
Procedure: (§2) Un autre essai a été réalisé à partir des solutions suivantes : • 100 ml d'une solution à 0,1 % de digluconate de chlorhexidine (pH 6) et • 100 ml d'une solution à 0,1 % de Bardac 22®.
as §1
(§3) Les tests dont les résultats sont illustrés aux Tableaux D, E et F ont été réalisés à une température de réaction de 22° avec une incubation des sous-cultures 72 heures à 37°C avec comme substances inactivantes : Tween® 80 3 % + saponine 3 % + cystéine 0,1 % + histidine 0,1 %; ces Tableaux illustrent respectivement l'activité bactéricide et fongicide d'une solution aqueuse à 0,1 % de digluconate de chlorhexidine, d'une solution aqueuse à 0,1 % de Bardac 22® et d'un mélange à part égale des deux composés et montrent l'action des antiseptiques précités, en fonction du temps de contact, et font apparaître la même synergie d'action de l'association que ci-dessus, dans la mesure où l'association des deux composés permet de diminuer significativement leur concentration, pour l'obtention d'un même effet. TABLEAU D

[2] = test system: Candida albicans ATCC 1031; test: as above; assay type: cell-based
Procedure: as §2, §1, §3

[H]/N=C(\N/C(=N/[H])NCCCCCCNC(=N)NC(=N)Nc1ccc(Cl)cc1)Nc1ccc(Cl)cc1 [Chlorhexidine, digluconate de chlorhexidine, reference compound]
-: croissance ([1]; Conc. 1,0 % (vol/vol), non) | croissance (S. aureus ATCC 6538; Conc. 10 % (vol/vol), 60 min) | croissance (S. aureus ATCC 6538; Conc. 25 % (vol/vol), 30 min) | croissance (S. aureus ATCC 6538; Conc. 25 % (vol/vol), 60 min) | croissance ([2]; Conc. 1 % (vol/vol), 60 min) | croissance ([2]; Conc. 5 % (vol/vol), 30 min) | croissance ([2]; Conc. 5 % (vol/vol), 60 min) | croissance ([2]; Conc. 10 % (vol/vol), 30 min) | croissance ([2]; Conc. 10 % (vol/vol), 60 min) | croissance ([2]; Conc. 25 % (vol/vol), 15 min) | croissance ([2]; Conc. 25 % (vol/vol), 30 min) | croissance ([2]; Conc. 25 % (vol/vol), 60 min)
+: croissance ([1]; Conc. 0,1 % (vol/vol), A) | croissance ([1]; Conc. 0,1 % (vol/vol), B) | croissance ([1]; Conc. 0,1 % (vol/vol), C) | croissance ([1]; Conc. 0,1 % (vol/vol), non) | croissance ([1]; Conc. 0,05 % (vol/vol), A) | croissance ([1]; Conc. 0,5 % (vol/vol), A) | croissance ([1]; Conc. 0,05 % (vol/vol), B) | croissance ([1]; Conc. 0,5 % (vol/vol), B) | croissance ([1]; Conc. 0,05 % (vol/vol), C) | croissance ([1]; Conc. 0,5 % (vol/vol), C) | croissance ([1]; Conc. 0,05 % (vol/vol), non) | croissance ([1]; Conc. 0,5 % (vol/vol), non) | croissance ([1]; Conc. 1,0 % (vol/vol), A) | croissance ([1]; Conc. 1,0 % (vol/vol), B) | croissance ([1]; Conc. 1,0 % (vol/vol), C) | croissance ([1]; Conc. 0,00625 % (vol/vol), A) | croissance ([1]; Conc. 0,00625 % (vol/vol), B) | croissance ([1]; Conc. 0,00625 % (vol/vol), C) | croissance ([1]; Conc. 0,00625 % (vol/vol), non) | croissance ([1]; Conc. 0,0125 % (vol/vol), A) | croissance ([1]; Conc. 0,0125 % (vol/vol), B) | croissance ([1]; Conc. 0,0125 % (vol/vol), C) | croissance ([1]; Conc. 0,0125 % (vol/vol), non) | croissance ([1]; Conc. 0,025 % (vol/vol), A) | croissance ([1]; Conc. 0,025 % (vol/vol), B) | croissance ([1]; Conc. 0,025 % (vol/vol), C) | croissance ([1]; Conc. 0,025 % (vol/vol), non) | croissance (S. aureus ATCC 6538; Conc. 0,1 % (vol/vol), 1 min) | croissance (S. aureus ATCC 6538; Conc. 0,1 % (vol/vol), 3 min) | croissance (S. aureus ATCC 6538; Conc. 0,1 % (vol/vol), 5 min) | croissance (S. aureus ATCC 6538; Conc. 0,1 % (vol/vol), 15 min) | croissance (S. aureus ATCC 6538; Conc. 0,1 % (vol/vol), 30 min) | croissance (S. aureus ATCC 6538; Conc. 0,1 % (vol/vol), 60 min) | croissance (S. aureus ATCC 6538; Conc. 0,05 % (vol/vol), 1 min) | croissance (S. aureus ATCC 6538; Conc. 0,5 % (vol/vol), 1 min) | croissance (S. aureus ATCC 6538; Conc. 0,05 % (vol/vol), 3 min) | croissance (S. aureus ATCC 6538; Conc. 0,5 % (vol/vol), 3 min) | croissance (S. aureus ATCC 6538; Conc. 0,05 % (vol/vol), 5 min) | croissance (S. aureus ATCC 6538; Conc. 0,5 % (vol/vol), 5 min) | croissance (S. aureus ATCC 6538; Conc. 0,05 % (vol/vol), 15 min) | croissance (S. aureus ATCC 6538; Conc. 0,5 % (vol/vol), 15 min) | croissance (S. aureus ATCC 6538; Conc. 0,05 % (vol/vol), 30 min) | croissance (S. aureus ATCC 6538; Conc. 0,5 % (vol/vol), 30 min) | croissance (S. aureus ATCC 6538; Conc. 0,05 % (vol/vol), 60 min) | croissance (S. aureus ATCC 6538; Conc. 0,5 % (vol/vol), 60 min) | croissance (S. aureus ATCC 6538; Conc. 1 % (vol/vol), 1 min) | croissance (S. aureus ATCC 6538; Conc. 1 % (vol/vol), 3 min) | croissance (S. aureus ATCC 6538; Conc. 1 % (vol/vol), 5 min) | croissance (S. aureus ATCC 6538; Conc. 1 % (vol/vol), 15 min) | croissance (S. aureus ATCC 6538; Conc. 1 % (vol/vol), 30 min) | croissance (S. aureus ATCC 6538; Conc. 1 % (vol/vol), 60 min) | croissance (S. aureus ATCC 6538; Conc. 5 % (vol/vol), 1 min) | croissance (S. aureus ATCC 6538; Conc. 5 % (vol/vol), 3 min) | croissance (S. aureus ATCC 6538; Conc. 5 % (vol/vol), 5 min) | croissance (S. aureus ATCC 6538; Conc. 5 % (vol/vol), 15 min) | croissance (S. aureus ATCC 6538; Conc. 5 % (vol/vol), 30 min) | croissance (S. aureus ATCC 6538; Conc. 5 % (vol/vol), 60 min) | croissance (S. aureus ATCC 6538; Conc. 10 % (vol/vol), 1 min) | croissance (S. aureus ATCC 6538; Conc. 10 % (vol/vol), 3 min) | croissance (S. aureus ATCC 6538; Conc. 10 % (vol/vol), 5 min) | croissance (S. aureus ATCC 6538; Conc. 10 % (vol/vol), 15 min) | croissance (S. aureus ATCC 6538; Conc. 10 % (vol/vol), 30 min) | croissance (S. aureus ATCC 6538; Conc. 25 % (vol/vol), 1 min) | croissance (S. aureus ATCC 6538; Conc. 25 % (vol/vol), 3 min) | croissance (S. aureus ATCC 6538; Conc. 25 % (vol/vol), 5 min) | croissance (S. aureus ATCC 6538; Conc. 25 % (vol/vol), 15 min) | croissance ([2]; Conc. 0,1 % (vol/vol), 1 min) | croissance ([2]; Conc. 0,1 % (vol/vol), 3 min) | croissance ([2]; Conc. 0,1 % (vol/vol), 5 min) | croissance ([2]; Conc. 0,1 % (vol/vol), 15 min) | croissance ([2]; Conc. 0,1 % (vol/vol), 30 min) | croissance ([2]; Conc. 0,1 % (vol/vol), 60 min) | croissance ([2]; Conc. 0,05 % (vol/vol), 1 min) | croissance ([2]; Conc. 0,5 % (vol/vol), 1 min) | croissance ([2]; Conc. 0,05 % (vol/vol), 3 min) | croissance ([2]; Conc. 0,5 % (vol/vol), 3 min) | croissance ([2]; Conc. 0,05 % (vol/vol), 5 min) | croissance ([2]; Conc. 0,5 % (vol/vol), 5 min) | croissance ([2]; Conc. 0,05 % (vol/vol), 15 min) | croissance ([2]; Conc. 0,5 % (vol/vol), 15 min) | croissance ([2]; Conc. 0,05 % (vol/vol), 30 min) | croissance ([2]; Conc. 0,5 % (vol/vol), 30 min) | croissance ([2]; Conc. 0,05 % (vol/vol), 60 min) | croissance ([2]; Conc. 0,5 % (vol/vol), 60 min) | croissance ([2]; Conc. 1 % (vol/vol), 1 min) | croissance ([2]; Conc. 1 % (vol/vol), 3 min) | croissance ([2]; Conc. 1 % (vol/vol), 5 min) | croissance ([2]; Conc. 1 % (vol/vol), 15 min) | croissance ([2]; Conc. 1 % (vol/vol), 30 min) | croissance ([2]; Conc. 5 % (vol/vol), 1 min) | croissance ([2]; Conc. 5 % (vol/vol), 3 min) | croissance ([2]; Conc. 5 % (vol/vol), 5 min) | croissance ([2]; Conc. 5 % (vol/vol), 15 min) | croissance ([2]; Conc. 10 % (vol/vol), 1 min) | croissance ([2]; Conc. 10 % (vol/vol), 3 min) | croissance ([2]; Conc. 10 % (vol/vol), 5 min) | croissance ([2]; Conc. 10 % (vol/vol), 15 min) | croissance ([2]; Conc. 25 % (vol/vol), 1 min) | croissance ([2]; Conc. 25 % (vol/vol), 3 min) | croissance ([2]; Conc. 25 % (vol/vol), 5 min)
0,001%: concentration en substance active inhibant la croissance ([1]; antiseptique seul)
